Test results published in PMC4990076 (MedChemComm, 2016).

Target: human Icmt (hIcmt) (Homo sapiens, UniProt O60725)
Test: in vitro vapor diffusion assay for hIcmt activity
Format: biochemical
Settings: not given

human Icmt (hIcmt), sequence (O60725 whole entry, the tested form may be a part): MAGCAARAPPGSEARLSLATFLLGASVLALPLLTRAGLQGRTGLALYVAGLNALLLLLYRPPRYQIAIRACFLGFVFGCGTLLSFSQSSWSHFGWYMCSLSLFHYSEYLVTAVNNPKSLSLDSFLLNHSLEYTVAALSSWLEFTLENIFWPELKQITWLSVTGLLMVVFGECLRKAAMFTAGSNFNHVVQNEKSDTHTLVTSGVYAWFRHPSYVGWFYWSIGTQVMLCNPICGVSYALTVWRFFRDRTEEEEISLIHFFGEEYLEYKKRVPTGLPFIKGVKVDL

Row | hIcmt inhibitory activity (in words) | Structure (SMILES)
1 | inactive | c1ccc(C(=C2CCOCC2)c2ccc3ccccc3c2)cc1 [Compound 6]
2 | abolished activity | c1ccc2cc(CC3CCOCC3)ccc2c1 [Compound 7]
3 | abolished activity | O=C(c1ccc2ccccc2c1)C1CCOCC1 [Compound 8]
4 | inactive | OC(c1ccccc1)(c1cccs1)C1CCOCC1 (centres unmarked) [Compound 9]

More lines, now with the values behind:

Row | Structure (SMILES) | hIcmt inhibitory activity (in words)
5 | c1ccc(C(=C2CCOCC2)c2cccs2)cc1 [Compound 10] | inactive
6 | c1csc(C(c2ccc3ccccc3c2)C2CCNCC2)c1 (centres unmarked) [Compound 11] | not active
7 | CN1CCC(C(c2ccc3ccccc3c2)c2cccs2)CC1 (centres unmarked) [Compound 12] | not active

Test system: Ras localization
Test: not given
Settings: at micromolar concentrations; cited from earlier work

Row | Structure (SMILES) | Ras mislocalization in cells
8 | CCCCCCCCn1cc(CC(N)=O)c2cc(-c3cccc(C)c3)ccc21 [Cysmethynil] | causes Ras mislocalization
